# Data as given in patent publication US10822349B2, “Macrocyclic purines for the treatment of viral infections” (JANSSEN SCIENCES IRELAND UNLIMITED COMPANY, priority 2012, dated 2020).
# Read-outs that look alike come from different tables or passages of the source.
# Tests used:
# [1] = rcm bond
# human TLR7 = biological target: T1, human TLR7 (Homo sapiens, UniProt Q9NYK1); test: TLR7 cellular reporter assay (HEK293 TLR7-NFκB-luc); assay type: cell-based; settings: lowest effective concentration; HEK293 transiently transfected with TLR7 and NFκB-luc; 6 hours incubation
# T1 construct: expressed in transfected cells; host or cells: HEK293
# T1 sequence (Q9NYK1 27-1049): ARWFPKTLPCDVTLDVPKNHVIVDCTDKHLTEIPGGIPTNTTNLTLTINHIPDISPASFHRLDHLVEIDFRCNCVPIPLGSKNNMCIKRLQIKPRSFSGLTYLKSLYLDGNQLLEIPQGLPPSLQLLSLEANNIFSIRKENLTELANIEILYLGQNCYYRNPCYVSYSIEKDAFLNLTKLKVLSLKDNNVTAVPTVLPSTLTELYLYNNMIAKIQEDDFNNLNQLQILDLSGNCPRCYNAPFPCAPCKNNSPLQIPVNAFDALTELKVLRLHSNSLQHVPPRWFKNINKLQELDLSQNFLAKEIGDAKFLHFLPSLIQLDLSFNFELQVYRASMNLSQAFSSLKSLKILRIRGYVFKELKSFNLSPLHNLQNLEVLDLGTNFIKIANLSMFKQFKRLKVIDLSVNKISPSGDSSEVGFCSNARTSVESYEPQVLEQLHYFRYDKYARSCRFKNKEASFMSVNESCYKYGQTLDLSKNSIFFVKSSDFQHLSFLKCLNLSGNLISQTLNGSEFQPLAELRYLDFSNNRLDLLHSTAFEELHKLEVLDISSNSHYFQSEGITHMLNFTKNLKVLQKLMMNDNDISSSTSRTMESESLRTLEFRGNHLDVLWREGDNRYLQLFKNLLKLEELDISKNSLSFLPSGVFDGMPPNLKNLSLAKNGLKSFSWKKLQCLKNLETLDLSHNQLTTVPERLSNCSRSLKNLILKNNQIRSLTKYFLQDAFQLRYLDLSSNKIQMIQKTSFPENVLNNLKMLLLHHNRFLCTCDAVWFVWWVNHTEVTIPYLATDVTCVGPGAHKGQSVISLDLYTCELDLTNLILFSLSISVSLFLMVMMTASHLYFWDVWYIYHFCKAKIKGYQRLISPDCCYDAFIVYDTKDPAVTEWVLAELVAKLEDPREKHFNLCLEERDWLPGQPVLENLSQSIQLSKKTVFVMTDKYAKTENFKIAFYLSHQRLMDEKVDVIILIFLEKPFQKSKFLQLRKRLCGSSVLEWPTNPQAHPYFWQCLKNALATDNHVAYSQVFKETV
# Description: The ability of compounds to activate human TLR7 and TLR8 was assessed in a cellular reporter assay using HEK293 cells transiently transfected with a TLR7 or TLR8 expression vector and NFκB-luc reporter construct. Briefly, HEK293 cells were grown in culture medium (DMEM supplemented with 10% FCS and 2 mM Glutamine). For transfection of cells in 10 cm dishes, cells were detached with Trypsin-EDTA, transfected with a mix of CMV-TLR7 or TLR8 plasmid (750 ng), NFκB-luc plasmid (375 ng) and a transfection reagent and incubated 48 hours at 37° C. in a humidified 5% CO2 atmosphere. Transfected cells were then detached with Trypsin-EDTA, washed in PBS and resuspended in medium to a density of 1.67×10^5 cells/mL. Thirty microliters of cells were then dispensed into each well in 384-well plates, where 10 μL of compound in 4% DMSO was already present. Following 6 hours incubation at 37° C., 5% CO2, the luciferase activity was determined by adding 15 μl of Steady Lite Plus substrate (Perkin Elmer) to each well and readout performed on a ViewLux ultraHTS microplate imager (Perkin Elmer). Dose response curves were generated from measurements performed in quadruplicates. Lowest effective concentrations (LEC) values, defined as the concentration that induces an effect which is at least two fold above the standard deviation of the assay, were determined for each compound.
# [2] = tested on: interferon production in human PBMC; test: Interferon production in human PBMC, read out on HEK-ISRE-luc reporter cells; assay type: cell-based; settings: lowest effective concentration, PBMC supernatant after overnight incubation transferred to HEK-ISRE-luc cells; for minimal effective concentration: Homo sapiens, PBMC, 24 h, read-out: PBMC HEK-ISRE-luc (LEC; μM)
# Description: Activation of human TLR7 results in robust production of interferon by plasmacytoid dendritic cells present in human blood. The potential of compounds to induce interferon was evaluated by determination of interferon in the conditioned media from peripheral blood mononuclear cells (PBMC). The presence of interferon in the samples was determined, using an interferon reporter cell line stably expressing an interferon-stimulated responsive elements (ISRE)-luc reporter construct. The ISRE element with sequence GAAACTGAAACT (SEQ ID: 1) is highly responsive to the STAT1-STAT2-IRF9 transcription factor, which becomes activated upon binding of IFN-I to the IFN receptor. Briefly, PBMCs were prepared from buffy coats of at least two donors using a standard Ficoll centrifugation protocol. Isolated PBMCs were resuspended in RPMI medium supplemented with 10% human AB serum and 2×10^5 cells/well were dispensed into 384-well plates containing compounds (70 μL total volume). After overnight incubation of the PBMCs with the compounds, 10 μL of supernatant was transferred to 384-well plates containing 5×10^3 HEK-ISRE-luc cells/well in 30 μL (plated the day before). Following 24 hours of incubation, activation of the ISRE elements was measured by assaying luciferase activity using 40 μL/well Steady Lite Plus substrate (Perkin Elmer) and measured with ViewLux ultraHTS microplate imager (Perkin Elmer). The stimulating activity of each compound on the HEK-ISRE-luc cells was reported as LEC. The LEC in turn indicates the degree of ISRE activation on transfer of a defined amount of PBMC culture medium. Recombinant interferon alfa-2a (Roferon-A) was used as a standard control compound.
smiles,measurement,setting,value
CCOC(=O)N1Cc2cccc(c2)CC=CCCC(CO[Si](C)(C)C(C)(C)C)Nc2nc(N)c([N+](=O)[O-])c1n2 (centres unmarked),"ring closure, yield of all isomers","[1]; from C=CCCC(CO[Si](C)(C)C(C)(C)C)Nc1nc(N)c([N+](=O)[O-])c(N(Cc2cccc(CC=C)c2)C(=O)OCC)n1, Grubbs catalyst 2nd generation, CH2Cl2, 7.83 mM, 25.0 °C, 24.0 h",70%
CCOC(=O)N1Cc2ncccc2OCCC=CCOc2nc(N=P(c3ccccc3)(c3ccccc3)c3ccccc3)c([N+](=O)[O-])c1n2,"ring closure, yield of all isomers","[1]; from C=CCCOc1cccnc1CN(C(=O)OCC)c1nc(OCC=C)nc(N=P(c2ccccc2)(c2ccccc2)c2ccccc2)c1[N+](=O)[O-], Hoveyda-Grubbs 2nd generation (with chlorodicyclohexylborane), 1,2-dichloroethane, 2.98 mM, 120.0 °C, 31.0 h",54%
CCOC(=O)N1Cc2cccc(c2)CC=CCCCOc2nc(N)c([N+](=O)[O-])c1n2,"ring closure, yield of all isomers","[1]; from C=CCCCOc1nc(N)c([N+](=O)[O-])c(N(Cc2cccc(CC=C)c2)C(=O)OCC)n1, Grubbs catalyst 2nd generation, CH2Cl2, 3.13 mM, 25.0 °C, 2.0 h",73%
COc1nc2c(N)nc3nc2n1Cc1cccc(c1)CC=CCCO3,"ring closure, yield of all isomers","[1]; from C=CCCOc1nc(N)c2nc(OC)n(Cc3cccc(CC=C)c3)c2n1, Grubbs catalyst 2nd generation, CH2Cl2, 3.42 mM, 24.0 h",23%
CCOC(=O)N1Cc2ncccc2OCC=CCCOc2nc(N)c([N+](=O)[O-])c1n2,"ring closure, yield of all isomers","[1]; from C=CCCOc1nc(N)c([N+](=O)[O-])c(N(Cc2ncccc2OCC=C)C(=O)OCC)n1, Hoveyda-Grubbs 2nd generation (with chlorodicyclohexylborane), 1,2-dichloroethane, 3.74 mM, 80.0 °C, 1.0 h",70%
CCOC(=O)N1Cc2cc(OC)cc(c2)OCC=CCOc2nc(N)c([N+](=O)[O-])c1n2,"ring closure, yield of all isomers","[1]; from C=CCOc1cc(CN(C(=O)OCC)c2nc(OCC=C)nc(N)c2[N+](=O)[O-])cc(OC)c1, Grubbs-Hoveyda catalyst 2nd generation (with chlorodicyclohexylborane), 1,2-dichloroethane, 3.63 mM, 120.0 °C, 18.0 h",27%
CCOc1nc2c(N)nc3nc2n1Cc1cccc(c1)CC=CCCCn1ccnc1-3,"ring closure, yield of all isomers","[1]; from C=CCCCn1ccnc1-c1nc(N)c2nc(OCC)n(Cc3cccc(CC=C)c3)c2n1, Grubbs catalyst 2nd generation, CH2Cl2, 3.76 mM, 25.0 °C, 24.0 h",5%
CCOC(=O)N1Cc2ccc(OC)c(c2)OCC=CCOc2nc(N)c([N+](=O)[O-])c1n2,"ring closure, yield of all isomers","[1]; from C=CCOc1nc(N)c([N+](=O)[O-])c(N(Cc2ccc(OC)c(OCC=C)c2)C(=O)OCC)n1, Grubbs catalyst 2nd generation, CH2Cl2, 3.63 mM, 25.0 °C, 66.0 h",7.6%
CCOC(=O)N1CCc2cccc(c2)OCC=CCCOc2nc(N)c([N+](=O)[O-])c1n2,"ring closure, yield of all isomers","[1]; from C=CCCOc1nc(N)c([N+](=O)[O-])c(N(CCc2cccc(OCC=C)c2)C(=O)OCC)n1, Grubbs catalyst 2nd generation, CH2Cl2, 5.2 mM, 25.0 °C, 7.0 h",52%
CCOC(=O)N1CCc2cccc(c2)OCC=CCOc2nc(N)c([N+](=O)[O-])c1n2,"ring closure, yield of all isomers","[1]; from C=CCOc1cccc(CCN(C(=O)OCC)c2nc(OCC=C)nc(N)c2[N+](=O)[O-])c1, Grubbs 2nd generation, dichloromethane, 5.2 mM, 25.0 °C, 36.0 h",56.5%
Nc1nc2nc3c1ncn3Cc1cccc(c1)CC=CCCO2,"ring closure, yield of all isomers","[1]; from C=CCCOc1nc(N)c2ncn(Cc3cccc(CC=C)c3)c2n1, Hoveyda-Grubbs 2nd generation (with chlorodicyclohexylborane), 1,2-dichloroethane, 2.98 mM, 120.0 °C, 23.0 h",34%
CCOC(=O)N1Cc2cccc(c2)CC=CCCOc2nc(N)c([N+](=O)[O-])c1n2,"ring closure, yield of all isomers","[1]; from C=CCCOc1nc(N)c([N+](=O)[O-])c(N(Cc2cccc(CC=C)c2)C(=O)OCC)n1, Grubbs catalyst 2nd generation, CH2Cl2, 3.14 mM, 25.0 °C, 16.0 h",27.4%
CCOC(=O)N1Cc2cccc(c2)OCC=CCOc2nc(N)c([N+](=O)[O-])c1n2,"ring closure, yield of all isomers","[1]; from C=CCOc1cccc(CN(C(=O)OCC)c2nc(OCC=C)nc(N)c2[N+](=O)[O-])c1, Hoveyda-Grubbs 2nd generation (with chlorodicyclohexylborane), 1,2-dichloroethane, 4.22 mM, 120.0 °C, 4.0 h",36%
CCOC(=O)N1Cc2ccc(F)c(c2)OCC=CCOc2nc(N)c([N+](=O)[O-])c1n2,"ring closure, yield of all isomers","[1]; from C=CCOc1nc(N)c([N+](=O)[O-])c(N(Cc2ccc(F)c(OCC=C)c2)C(=O)OCC)n1, Grubbs-Hoveyda catalyst 2nd generation (with chlorodicyclohexylborane), 1,2-dichloroethane, 5.07 mM, 120.0 °C, 3.0 h",58%
Nc1nc2nc3c1nc(O)n3Cc1cccc(c1)C/C=C/CCCCO2 [Compound 34],HEK293 TLR7-NFκB-luc (LEC; μM),human TLR7,9.81 µM
same,minimal effective concentration,[2],0.032 µM
COc1ccc2cc1OCCCCOc1nc(N)c3nc(O)n(c3n1)C2 [Compound 56],HEK293 TLR7-NFκB-luc (LEC; μM),human TLR7,0.056 µM
same,minimal effective concentration,[2],0.01 µM
Nc1nc2nc3c1nc(O)n3Cc1ccc(nc1)OCC/C=C/CCO2 [Compound 25],HEK293 TLR7-NFκB-luc (LEC; μM),human TLR7,20.22 µM
same,minimal effective concentration,[2],3.61 µM
Nc1nc2nc3c1ncn3Cc1ncccc1OCC=CCCO2,"ring closure, yield of all isomers","[1]; from C=CCCOc1nc(N)c2ncn(Cc3ncccc3OCC=C)c2n1, Grubbs-Hoveyda catalyst 2nd generation (with chlorodicyclohexylborane), 1,2-dichloroethane, 3.04 mM, 120.0 °C, 10.0 h",5%
Nc1nc2nc3c1nc(O)n3Cc1cccc(c1)C/C=C\CCO2 [Compound 17],HEK293 TLR7-NFκB-luc (LEC; μM),human TLR7,0.067 µM
same,PBMC HEK-ISRE-luc (LEC; μM),[2]; 24 hours,0.013 µM
